# Measured values as given in US20180099031A1, “DIABETES TREATMENT” (BETH ISRAEL DEACONESS MEDICAL CENTER, priority 2013, published 2018).
# System: New onset diabetic NOD mice
# Assay: α1 anti-trypsin treatment of new onset diabetic NOD mice, blood glucose levels
# Type: in vivo
# Source text: Female NOD (NOD/LtJx) mice and NOD.SCID (NOD.CB17-Prkdcscid/J) mice were purchased from Jackson Laboratories (Bar Harbor, Me.) at 4 wks of age and maintained under pathogen-free conditions at the Harvard Institutes of Medicine (Boston, Mass.). The Harvard Medical School institutional review board approved all animal studies.
# Blood glucose levels of NOD mice were monitored twice weekly with the Accu-Check blood glucose monitor system (Roche, Indianapolis, Ind.). When non-fasting blood glucose levels were in excess of 200 mg/dl on three consecutive measurements a diagnosis of new onset of diabetes was made. Mice with blood glucose levels between 250 to 350 mg/dl were used for the experiment described below. […] The 25% residual beta cell mass is similar to that found in newly diagnosed patients with T1DM.
# New onset diabetic NOD mice were divided into two groups and treated with α1 anti-trypsin while simultaneously receiving intense insulin treatment (Group 1) or implantable insulin pellets (Group 2).
# For the animals in Group 1, insulin doses were calibrated on the basis of three blood glucose measurements per day. The goal was to maintain blood glucose levels between 100-160 mg/dl. For blood glucose levels in excess of 160 mg/dl, NPH insulin was administered i.p. in doses ranging from 1 to 4 International Units depending upon the magnitude of hyperglycemia. For blood glucose level between 160 and 200 mg/dl, 1 IU was given. For blood glucose levels between 200 and 250 mg/dl, 2 IU of NPH insulin were given. For blood glucose levels between 250 and 300 mg/dl, 2 IU of NPH insulin were given. For blood glucose levels between 300 and 350 mg/dl, 3 IU of NPH insulin were given. For blood glucose levels in excess of 350 mg/dl, 4 IU of NPH insulin were given. Mice with high blood glucose levels in excess of 400 mg/dl for 2 days also received 0.2-0.4 ml warm normal saline subcutaneously in order to treat glycosuria-associated dehydration.
# The animals in Group 2, LinBit™ sustained release insulin implants were used for management of hyperglycemia. LinBit™ sustained release insulin implants were purchased from LinShin Canada Inc. The LinBit™ implants (3-mm in length and 2 mm in diameter) were made from an admixture of insulin and micro-recrystallized palmitic acid and were erodible in vivo after being placed subcutaneously. The insulin release rate was about 0.1 U/day/implant for the time period over 2-4 weeks.
# In our experiments, one or 2 LinBit™ implants were placed subcutaneously under the mid dorsal skin in newly onset diabetic mice with 3 previous measurements of blood glucose levels >200 mg/dL. The mice were anesthesized with ketamine/xylazine and the hair on the dorsal skin from a spot about 1 cm^2 was clipped using a small scissors with curved tips. […]
substance,measurement,setting,value
"α1 anti-trypsin: Aralast NP, a human α1-proteinase inhibitor derived from pooled human plasma, purchased from Baxter",blood glucose levels,"Group 1: with intense insulin therapy (NPH insulin i.p., three glucose measurements per day), Aralast NP 2 mg i.p. every 3 days, five injections, experiment 60-100 days, FIG. 1",fell to normoglycemic levels shortly after treatment began and remained at normal levels for the entire duration of the experiment
same,blood glucose levels shortly after treatment began,"Group 2: with LinBit insulin implants s.c., Aralast NP 2 mg i.p. every 3 days, five injections, FIG. 2",fell to normoglycemic levels shortly after treatment began
same,effect on diabetic state,glucose levels maintained within normal limits (50-120 mg/dL) by intensive insulin therapy,curative effect
same,effect on diabetic state,hyperglycemic state managed by subcutaneously placed insulin pellets,less effective
